Key:
[1] = Particle size and polydispersity index of nanoparticle compositions (Zetasizer Nano ZS); format: physicochemical; details: Table 1A; for Size (nm): lipid:DSPC:cholesterol:PEG-DMG 50:10:38.5:1.5 mol %
Method in brief: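 Measured in 1×PBS by Zetasizer Nano ZS.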

[2] = Encapsulation efficiency of RNA (QUANT-IT RIBOGREEN RNA assay); format: physicochemical; details: Table 1A
Method in brief: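 RiboGreen fluorescence (ex ~480, em ~520 nm) compared between intact samples and Triton X-100-lysed samples after 15 min at 37 °C in TE buffer, pH 7.5. Percent free RNA is the blank-corrected intact/disrupted ratio.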

luciferase (Luc) mRNA [3] = test: Luc expression, whole body bioluminescence after intravenous administration to mice; format: in vivo; details: for Fold increase in total body Luc Flux relative to MC3 at 6 h: Table 3A; for Fold increase in total body Luc Flux relative to MC3 at 6 h / 6 h Lipid/MC3 Avg. Luc Expression / Fold increase AUC Lipid/MC3 / AUC (h * p/s): i.v. administration; for Total Flux 3 hours / Total Flux 6 hours / Total Flux 24 hours: Luc mRNA; for flux at all timepoints measured: 3, 6 and 24 hour, in words; for 6 h Lipid/MC3 Avg. Luc Expression / Fold increase AUC Lipid/MC3 / AUC (h * p/s): Table 3C
Method in brief: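 Bioluminescence, read as region-of-interest total flux at 3, 6 and 24 h, followed a single 0.5 mg/kg intravenous dose of Luc mRNA-loaded nanoparticles in mice (n=6). Luciferin substrate (200 μL, 15 mg/mL in PBS) was injected intraperitoneally into CD-1 mice 15 minutes ahead of each imaging point.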

luciferase (Luc) mRNA [4] = test: Luc expression (total flux) after intramuscular administration; format: in vivo, mice; details: 6 hours after intramuscular administration, Luc mRNA and H10 mRNA
Experimental: In order to monitor how effectively various nanoparticle compositions deliver therapeutic and/or prophylactics to targeted cells, different nanoparticle compositions including a particular therapeutic and/or prophylactic (for example, a modified or naturally occurring RNA such as an mRNA) are prepared and administered to rodent populations. Mice are intravenously, intramuscularly, intraarterially, or intratumorally administered a single dose including a nanoparticle composition with a formulation such as those provided in Example 3. In some instances, mice may be made to inhale doses. Dose sizes may range from 0.001 mg/kg to 10 mg/kg, where 10 mg/kg describes a dose including 10 mg of a therapeutic and/or prophylactic in a nanoparticle composition for each 1 kg of body mass of the mouse. A control composition including PBS may also be employed.
Sample formulations including both modified luciferase (Luc) mRNA and H10 mRNA were prepared and administered intramuscularly and the resulting expression and immunogenicity were evaluated simultaneously. Formulations including compounds according to Formula (I), (IA), (IB), (II), (IIa), (IIb), (IIc), (IId), (IIe), (IIf), (IIg), (III), (VI), (VI-a), (VII), (VIII), (VIIa), (VIIIa), (VIIIb), (VIIb-1), (VIIb-2), (VIIb-3), (VIIc), (VIId), (VIIIc), or (VIIId) were prepared and administered at doses of 0.001 and 0.01 mpk (e.g., doses of 0.0005 mpk of a formulation including Luc mRNA and a formulation including H10 mRNA or doses of 0.005 mpk of a formulation including Luc mRNA and a formulation including H10 mRNA).
Sample formulations including modified luciferase (Luc) mRNA prepared and administered intramuscularly and the resulting expression and immunogenicity were evaluated simultaneously. Formulations including compounds according to Formula (I), (IA), (IB), (II), (IIa), (IIb), (IIc), (IId), (IIe), (IIf), (IIg), (III), (VI), (VI-a), (VII), (VIII), (VIIa), (VIIIa), (VIIIb), (VIIb-1), (VIIb-2), (VIIb-3), (VIIc), (VIId), (VIIIc), or (VIIId) were prepared and administered at dose of and 0.01 mpk.

luciferase (Luc) mRNA [5] = test: Luc expression in liver, lung, spleen and femur 6 hours after intravenous administration; format: in vivo; details: mice, 0.5 mpk; for Total Flux Liver / Total Flux Lung / Total Flux Spleen: intravenous
Method in brief: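 LNP-formulated mRNA given IV to mice (n=3) at 0.5 mpk; at 6 h, bioluminescence imaged ex vivo 15 min after IP D-luciferin (15 mg/mL, 200 μL), organs imaged within 25 min. Values are total flux by region of interest.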

[6] = Apparent (surface) pKa of the LNP formulation (TNS assay); format: physicochemical; details: Table 1A
Method in brief: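 Fluorescence of TNS probe added to LNP samples (mRNA 0.04 mg/mL) was read across 21 buffers of pH about 3-12, triplicate per pH. The inflection point of the sigmoidal fluorescence-vs-pH curve, […], gives apparent pKa; method validated in 1× PBS and Tris/sucrose buffer.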

Row | Structure (SMILES) | PDI [1] | Size (nm) [1] [nm] | EE (%) [2] [%] | Total Flux 3 hours (luciferase (Luc) mRNA [3]; mice, i.v., 0.5 mg/kg) | Total Flux 6 hours (luciferase (Luc) mRNA [3]; mice, i.v., 0.5 mg/kg) | Total Flux 24 hours (luciferase (Luc) mRNA [3]; mice, i.v., 0.5 mg/kg) | Total Flux Liver (luciferase (Luc) mRNA [5]) | Total Flux Lung (luciferase (Luc) mRNA [5]) | Total Flux Spleen (luciferase (Luc) mRNA [5]) | pKa [6] | 6 h Lipid/MC3 Avg. Luc Expression (luciferase (Luc) mRNA [3]) | Fold increase AUC Lipid/MC3 (luciferase (Luc) mRNA [3]) | AUC (h * p/s) (luciferase (Luc) mRNA [3]; Luc) | also measured
1 | CCCCCCCCCOC(=O)CCCCCCCN(CCO)CCCCCCCC(=O)OC(CCCC)CCCC [Compound 57, nonan-5-yl 8-((2-hydroxyethyl)(8-(nonyloxy)-8-oxooctyl)amino) octanoate] | 0.16 | 128.4 | 94.33 | 6.69E+06 | 6.21E+06 | 4.16E+05 | 9.36E+05 | 3.18E+04 | 2.47E+06 | – | – | – | – | Fold increase in total body Luc Flux relative to MC3 at 6 h (luciferase (Luc) mRNA [3]): 0.00056; flux at all timepoints measured (luciferase (Luc) mRNA [3]; mice, i.v., 0.5 mg/kg): significantly lower flux; Total flux, 0.001 mpk Dose (luciferase (Luc) mRNA [4]; 0.001 mpk): 1.16E+05 p/s; Total flux, 0.01 mpk Dose (luciferase (Luc) mRNA [4]; 0.01 mpk): 2.23E+05 p/s
2 | CCCCCCCCC(C)OC(=O)CCCCCCCN(CCO)CCCCCCCC(=O)N(CCCCCCCC)CCCCCCCC (stereo not drawn) [Compound 130, Decan-2-yl 8-((8-(dioctylamino)-8-oxooctyl)(2-hydroxyethyl)amino)octanoate] | 0.13 | 107.1 | 97 | 6.26E+10 | 8.92E+10 | 1.08E+09 | 8.17E+09 | 5.88E+07 | 1.35E+09 | 6.83 | – | – | – | Fold increase in total body Luc Flux relative to MC3 at 6 h (luciferase (Luc) mRNA [3]): 4.02; Flux in the spleen (luciferase (Luc) mRNA [5]; i.v., in words): highest
3 | CCCCCCCCC(CCCCCC)C(=O)OCCCCCCCCCN(CCO)CCCCCCCCCOC(=O)C(CCCCCC)CCCCCCCC (stereo not drawn) [Compound 133, ((2-Hydroxyethyl)azanediyl)bis(nonane-9,1-diyl) bis(2-hexyldecanoate)] | 0.098 | 66.0 | 91.48 | 3.32E+10 | 2.93E+10 | 4.74E+08 | 2.94E+09 | 3.18E+06 | 1.77E+07 | 6.38 | 4.02 | 4.39 | 3.62E+11 | –
4 | CCCCCCCCC(CCCCCCCC)OC(=O)CCCCCCCN(CCO)CCCCCCCC(=O)N(C)CCCCCCCC [Compound 145, Heptadecan-9-yl 8-((2-hydroxyethyl)(8-(methyl(octyl)amino)-8-oxooctyl)amino)octanoate] | 0.140 | 176.5 | 89.15 | 7.11E+09 | 6.50E+09 | 2.38E+08 | 5.01E+08 | 1.36E+07 | 4.25E+08 | 7.25 | 0.89 | 0.983 | 8.1E+10 | –
5 | CCCCCCCCOP(=O)(OCCCCCCCC)OCCCCCCCN(CCO)CCCCCCCC(=O)OC(C)CCCCCCCC (stereo not drawn) [Compound 132, Decan-2-yl 8-((7-((bis(octyloxy)phosphoryl)oxy)heptyl)(2-hydroxyethyl)amino)octanoate] | 0.180 | 298.0 | 30.77 | 1.77E+09 | 1.36E+09 | 5.31E+07 | 1.49E+08 | 1.39E+07 | 3.37E+08 | 7.34 | 0.187 | 0.212 | 1.75E+10 | –
6 | CCCCCCCCC(C)OC(=O)CCCCCCCN(CCO)CCCCCCCOC(=O)C(CCCCCCCC)CCCCCCCC (stereo not drawn) [Compound 135, 7-((8-(Decan-2-yloxy)-8-oxooctyl)(2-hydroxyethyl)amino)heptyl 2-octyldecanoate] | 0.130 | 89.5 | 90.20 | 1.24E+11 | 9.90E+10 | 2.51E+09 | 1.65E+10 | 2.71E+07 | 1.39E+08 | 6.47 | 13.6 | 15.2 | 1.25E+12 | total flux at 3 hours (luciferase (Luc) mRNA [3]; mice, i.v., 0.5 mg/kg, comparison in words): highest; Flux in the liver (luciferase (Luc) mRNA [5]; i.v., in words): highest
7 | CCCCCCCCCOC(=O)CCCCCCCN(CCO)CCCCCCCC(=O)OC(C)(C)C [Compound 158, tert-Butyl 8-((2-hydroxyethyl)(8-(nonyloxy)-8-oxooctyl)amino)octanoate] | 0.080 | 251.8 | 35.70 | 2.69E+05 | 9.82E+05 | 1.55E+05 | 1.99E+05 | 1.71E+04 | 1.17E+05 | 6.953 | – | – | – | Lipid/MC3 AUC (luciferase (Luc) mRNA [3]; Table 3D, intravenous): <0.01; AUC (p/s * h) (luciferase (Luc) mRNA [3]; Table 3D, intravenous, Luc): 1.211E+007 p/s * h; flux at all timepoints measured (luciferase (Luc) mRNA [3]; mice, i.v., 0.5 mg/kg): significantly lower flux
8 | CCCCCCCCCOC(=O)CCCN(C)CCCCCCCC(=O)OC(CCCCCCCC)CCCCCCCC [Compound 126, Heptadecan-9-yl 8-(methyl(4-(nonyloxy)-4-oxobutyl)amino)octanoate] | 0.18 | 77.4 | 96.8 | 7.59E+09 | 1.09E+10 | 1.40E+08 | 7.41E+08 | 2.68E+06 | 1.87E+07 | 6.00 | – | – | – | –
9 | CCCCCCCCC(CCCCCCCC)OC(=O)CCCCCCCN(C)CCCCCCCC(=O)OC(CCCCCCCC)CCCCCCCC [Compound 124, Di(heptadecan-9-yl) 8,8′-(methylazanediyl)dioctanoate] | 0.1 | 61.3 | 97.7 | 6.62E+07 | 3.91E+09 | 5.13E+06 | 8.46E+06 | 5.67E+04 | 8.06E+04 | 5.89 | – | – | – | Flux in the spleen (luciferase (Luc) mRNA [5]; i.v., in words): lowest
10 | CCCCCCCCCOC(=O)CCCCCCCN(CCO)CCCCCCCC(=O)OC1CCCCCCCCCCCCCC1 [Compound 81, Cyclopentadecyl 8-((2-hydroxyethyl)(8-(nonyloxy)-8-oxooctyl)amino)octanoate] | 0.14 | 99.2 | 95.4 | 7.87E+09 | 9.96E+09 | 5.13E+08 | 2.74E+08 | 6.23E+06 | 4.49E+07 | 7.14 | – | – | – | –

Reference: patent US12263248B2, “Compounds and compositions for intracellular delivery of therapeutic agents” (ModernaTX, Inc., priority 2018, dated 2025)
